According to ChEMBL document CHEMBL1126708, “Inhibitors of acyl-CoA:cholesterol acyltransferase (ACAT). 2. Modification of fatty acid anilide ACAT inhibitors: bioisosteric replacement of the amide bond” (J Med Chem, 1993):
pIC50: −log10 of the molar value. Blank lines part the entries; values can stand above or below the molecule they belong to.

Legend:
[1] = molecular target: O-acyltransferase (Oryctolagus cuniculus, UniProt G1SFD9); experiment: Acyl coenzyme A:cholesterol acyltransferase (ACAT), inhibition by incubation with [1-14C]oleolyl-CoA and intestinal microsomes isolated from intestinal mucosa of cholesterol-fed rabbits
[2] = test system: Rattus norvegicus; experiment: In vivo change in plasma total cholesterol in cholic acid (0.3%)-cholesterol (1.5%)-peanut oil(5.5%) fed rats dosed at 0.05% of diet.
[3] = molecular target: T1, Acyl-CoA:cholesterol acyltransferase (Oryctolagus cuniculus) (UniProt Q95214); experiment: Tested in vitro against intestinal Acyl coenzyme A:cholesterol acyltransferase by incubation with [1-14C]oleolyl-CoA in intestinal microsomes isolated from intestinal mucosa of cholesterol-fed rabbits; settings: Microsome, concentration not given here
T1 sequence (whole entry): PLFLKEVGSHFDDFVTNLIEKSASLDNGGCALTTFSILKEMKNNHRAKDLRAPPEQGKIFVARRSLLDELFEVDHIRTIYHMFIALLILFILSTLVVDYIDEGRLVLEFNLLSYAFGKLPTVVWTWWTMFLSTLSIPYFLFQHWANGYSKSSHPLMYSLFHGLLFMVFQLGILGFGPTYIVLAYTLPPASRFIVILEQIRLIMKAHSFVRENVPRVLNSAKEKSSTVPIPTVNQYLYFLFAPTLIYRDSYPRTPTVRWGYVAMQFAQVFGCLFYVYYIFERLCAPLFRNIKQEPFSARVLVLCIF

[4] = Tested in vivo for plasma total cholesterol(TC) in cholic acid (0.3%)-cholesterol (1.5%)-peanut oil (5.5%) fed rats; format: functional

Chain of O-acyltransferase (G1SFD9 1-524): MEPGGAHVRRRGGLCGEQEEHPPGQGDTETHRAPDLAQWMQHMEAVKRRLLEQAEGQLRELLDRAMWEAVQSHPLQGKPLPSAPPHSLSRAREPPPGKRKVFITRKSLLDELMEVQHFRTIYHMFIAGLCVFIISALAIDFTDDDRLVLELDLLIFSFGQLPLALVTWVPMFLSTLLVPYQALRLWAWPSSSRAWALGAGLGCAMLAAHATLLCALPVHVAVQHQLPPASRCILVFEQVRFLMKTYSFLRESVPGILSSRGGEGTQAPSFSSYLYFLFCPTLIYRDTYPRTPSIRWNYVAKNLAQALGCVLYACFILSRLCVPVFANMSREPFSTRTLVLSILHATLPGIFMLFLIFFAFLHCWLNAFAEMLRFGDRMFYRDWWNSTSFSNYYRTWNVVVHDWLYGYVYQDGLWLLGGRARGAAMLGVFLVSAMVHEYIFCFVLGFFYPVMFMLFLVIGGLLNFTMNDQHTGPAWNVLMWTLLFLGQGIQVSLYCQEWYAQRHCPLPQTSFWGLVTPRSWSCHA

SMILES: CCCCCCCC/C=C\CCCCCCCCNC(=O)Nc1ccc(C)cc1C
pIC50 [1]: < 5.30

SMILES: CCCCCCCCCCCCCCCCCC(=O)Nc1c(OC)cc(OC)cc1OC
Change [2]: -11%

SMILES: CCCCCCCC/C=C\CCCCCCCC/N=C(\S)Nc1c(C)cccc1C
Change [2]: -17%

SMILES: CCCCCCCC/C=C\CCCCCCCCNC(=O)Nc1ccccc1OC
pIC50 [1]: 5.48

SMILES: CCCCCCCC/C=C\CCCCCCCC(=O)NCc1c(OC)cc(OC)cc1OC
pIC50 [1]: 5.17

SMILES: CCCCCCCC/C=C\CCCCCCCCNC(=O)c1c(OC)cc(OC)cc1OC
pIC50 [1]: 5.03

SMILES: CCCCCCCC/C=C\CCCCCCCC(O)c1c(OC)cc(OC)cc1OC (configuration not stated)
inhibition [3]: 6%

SMILES: CCCCCCCC/C=C\CCCCCCCCNC(=O)Nc1ccccc1
pIC50 [1]: < 5.30

SMILES: CCCCCCCC/C=C\CCCCCCCCNC(=O)c1c(C)cccc1C
pIC50 [1]: 5.01

SMILES: CCCCCCCC/C=C\CCCCCCCCNCc1c(OC)cc(OC)cc1OC
pIC50 [1]: < 4.00

SMILES: CCCCCCCCCCCCCCCCCCOc1c(C)cccc1C
pIC50 [1]: < 5.00

SMILES: CCCCCCCC/C=C\CCCCCCCCNC(=O)Nc1ccc(OC)cc1OC
pIC50 [1]: 5.27

SMILES: CCCCCCCC/C=C\CCCCCCCC(=O)c1c(OC)cc(OC)cc1OC
pIC50 [1]: < 4.30

SMILES: CCCCCCCCCCCCCCCCCCOC(=O)Nc1c(C)cccc1C
pIC50 [1]: < 5.00

SMILES: CCCCCCCCCCCCCCCCCCSC(=O)Nc1c(C)cccc1C
pIC50 [1]: < 5.00

SMILES: CCCCCCCCCCCCCCCCCC(=O)Oc1c(C)cccc1C
pIC50 [1]: < 5.00

SMILES: CCCCCCCCCCCCCCCCCCNC(=O)c1c(C)cccc1C
pIC50 [1]: < 5.00

SMILES: CCCCCCCC/C=C\CCCCCCCCOC(=O)c1c(OC)cc(OC)cc1OC
pIC50 [1]: < 5.30

SMILES: CCCCCCCCCCCCCCCCCC[S+]([O-])c1c(C)cccc1C (configuration not stated)
pIC50 [1]: < 5.00

SMILES: CCCCCCCCCCCCCCCCCCSC(=O)Nc1c(OC)cc(OC)cc1OC
pIC50 [1]: 5.24

SMILES: CCCCCCCC/C=C\CCCCCCCCNC(=O)Nc1cc(C)ccc1C
pIC50 [1]: 5.35

SMILES: CCCCCCCCCCCCCCCCCCNC(=O)Oc1c(C)cccc1C
pIC50 [1]: 5.51

SMILES: CCCCCCCC/C=C\CCCCCCCCNC(=S)Nc1c(C)cccc1C
pIC50 [1]: 5.27

SMILES: CCCCCCCCCCCCCCCCCCNC(=O)NCc1c(OC)cc(OC)cc1OC
pIC50 [1]: < 5.30

SMILES: CCCCCCCC/C=C\CCCCCCCC(=O)Oc1c(C)cccc1C
pIC50 [1]: < 5.00

SMILES: CNC(=O)Nc1c(C(C)C)cccc1C(C)C
pIC50 [1]: < 5.30

SMILES: CCCCCCCCCCCCCCNC(=O)Nc1cccc(C(F)(F)F)c1
pIC50 [1]: < 5.60

SMILES: CCCCCCCCCCCCCCCCCCSc1c(C)cccc1C
pIC50 [1]: < 5.00

SMILES: CCCCCCCC/C=C\CCCCCCCCNC(=O)Nc1ccc(F)cc1F
pIC50 [1]: 5.33

SMILES: CCCCCCCC/C=C\CCCCCCCCNC(=O)Nc1ccc(Oc2ccccc2)cc1
pIC50 [1]: < 5.30

SMILES: CCCCCCCCCCCCCCCCCCOC(=O)Nc1c(OC)cc(OC)cc1OC
pIC50 [1]: 5.15

SMILES: CCCCCCCC/C=C\CCCCCCCC(=O)Nc1c(C)cccc1C
Change [2]: -38%

Further molecules by rising pIC50 [1], results first:

pIC50 [1]: 5.54
SMILES: CCCCCCCC/C=C\CCCCCCCCNC(=O)Nc1c(C)cc(C)cc1C

pIC50 [1]: 5.61
SMILES: CCCCCCCCCCCCCCCCCCNC(=O)Sc1c(C)cccc1C

pIC50 [1]: 5.92
SMILES: CCCCCCCC/C=C\CCCCCCCCNC(=O)Nc1c(Cl)cc(Cl)cc1Cl

pIC50 [1]: 5.96
SMILES: CCCCCCCCCCCCCCCCCCNC(=O)Nc1c(C)cccc1Cl

Change [2]: -28%
pIC50 [1]: 6.01
SMILES: CCCCCCCC/C=C\CCCCCCCCNC(=O)Nc1ccccc1CC

Change [2]: -22%
pIC50 [1]: 6.05
SMILES: CCCCCCCC/C=C\CCCCCCC/C(S)=N/c1c(OC)cc(OC)cc1OC

pIC50 [1]: 6.05
SMILES: CCCCCCCCCCCCCCCCCCNC(=O)Nc1c(OC)cc(OC)cc1OC

pIC50 [1]: 6.07
SMILES: CCCCCCCC/C=C\CCCCCCCCOC(=O)Nc1c(OC)cc(OC)cc1OC

pIC50 [1]: 6.16
SMILES: CCCCCCCCCCCCCCCCS(=O)(=O)Nc1c(OC)cc(OC)cc1OC

pIC50 [1]: 6.20
SMILES: CCCCNC(=O)Nc1c(C(C)C)cccc1C(C)C

pIC50 [1]: 6.21
SMILES: CCCCCCCCCCCCCCCCCCNC(=O)Nc1c(C)cccc1C

pIC50 [1]: 6.28
SMILES: CCCCCCCCCCCCCCNC(=O)Nc1c(Br)cc(CC)cc1Br

pIC50 [1]: 6.30
SMILES: CCCCCCCCCCC(C)(C)NC(=O)Nc1ccccc1CC

Change [2]: -47%
pIC50 [1]: 6.40
SMILES: CCCCCCCC/C=C\CCCCCCCCNC(=O)Nc1c(Cl)cccc1Cl

pIC50 [1]: 6.47
SMILES: CCCCCCCCCCCCCCNC(=O)Nc1ccc(F)cc1F

pIC50 [1]: 6.49
SMILES: CCCCCCCC/C=C\CCCCCCCCNC(=O)Nc1c(OC)cc(OC)cc1OC
Change [4]: -25%

pIC50 [1]: 6.60
SMILES: CCCCCCCCCCCCCCNC(=O)Nc1c(F)cc(F)cc1F

pIC50 [1]: 6.68
SMILES: CCCCCCCCCCNC(=O)Nc1c(C)cccc1C(C)C

pIC50 [1]: 6.70
SMILES: CCCCCCCCCCNC(=O)Nc1c(C)cccc1C(C)(C)C

Change [2]: -42%
pIC50 [1]: 6.74
SMILES: CCCCCCCC/C=C\CCCCCCCCNC(=O)Nc1c(C)cccc1Cl

Change [2]: -55%
pIC50 [1]: 6.80
SMILES: CCCCCCCC/C=C\CCCCCCCCNC(=O)Nc1c(C)cccc1C

pIC50 [1]: 6.96
SMILES: CCCCCCCCCCC1(NC(=O)Nc2c(CC)cccc2CC)CCCC1

pIC50 [1]: 7.00
SMILES: CCCCCCCCCCNC(=O)Nc1c(CC)cccc1CC

pIC50 [1]: 7.00
SMILES: CCCCCCNC(=O)Nc1c(C(C)C)cccc1C(C)C

Change [2]: -61%
pIC50 [1]: 7.06
SMILES: CCCCCCCCCCNC(=O)Nc1c(CC)cccc1C(C)C

pIC50 [1]: 7.14
SMILES: CCCCCCCCCCCCCCCCC(C)(C)CNC(=O)Nc1c(C(C)C)cccc1C(C)C

Change [2]: 0%
pIC50 [1]: 7.15
SMILES: CCCCCCCCCCCCCCNC(=O)Nc1c(C)cccc1Cl

Change [2]: -64%
pIC50 [1]: 7.25
SMILES: CCCCCCCCCCNC(=O)Nc1c(C(C)C)cccc1C(C)C

Change [2]: -60%
pIC50 [1]: 7.28
SMILES: CCCCCCCCCCC(C)(C)NC(=O)Nc1c(CC)cccc1CC

pIC50 [1]: 7.30
SMILES: CCCCCCCCCCC(CC)(CC)CNC(=O)Nc1c(C(C)C)cccc1C(C)C

Change [2]: -7%
pIC50 [1]: 7.32
SMILES: CCCCCCCCCCCCCCCCCCNC(=O)Nc1c(C(C)C)cccc1C(C)C

pIC50 [1]: 7.33
SMILES: CCCCCCCCCCC(C)(C)CNC(=O)Nc1c(C(C)C)cccc1C(C)C

Change [2]: -53%
pIC50 [1]: 7.34
SMILES: CCCCCCCCCCC1(NC(=O)Nc2c(C(C)C)cccc2C(C)C)CCCC1

pIC50 [1]: 7.34
SMILES: CCCCCCCCCC(C)(C)CNC(=O)Nc1c(C(C)C)cccc1C(C)C

Change [2]: -60%
pIC50 [1]: 7.35
SMILES: CCCCCCCCCCC(C)(C)NC(=O)Nc1c(C(C)C)cccc1C(C)C

Change [2]: -38%
pIC50 [1]: 7.36
SMILES: CCCCCCCC/C=C/CCCCCCCC(=O)Nc1c(OC)cc(OC)cc1OC

Change [2]: -26%
pIC50 [1]: 7.37
SMILES: CCCCCCCC/C=C\CCCCCCCCNC(=O)Nc1c(CC)cccc1CC

Change [2]: -41%
pIC50 [1]: 7.43
SMILES: CCCCCCCC/C=C\CCCCCCCCNC(=O)Nc1c(CC)cccc1C(C)C

Change [2]: -45%
pIC50 [1]: 7.55
SMILES: CCCCCCCC/C=C\CCCCCCCCNC(=O)Nc1c(C(C)C)cccc1C(C)C

Change [2]: -38%
pIC50 [1]: 7.68
SMILES: CCCCCCCCCCCCCCNC(=O)Nc1c(CC)cccc1CC

Change [2]: -41%
pIC50 [1]: 7.74
SMILES: CCCCCCCCCCCCCCNC(=O)Nc1c(CC)cccc1C(C)C
